From patent US20200385489A1, “USING COLIPASE INHIBITORS TO TREAT PANCREATITIS” (Mayo Foundation for Medical Education and Research, priority 2015, published 2020)

B1: Colipase: colipase polypeptide added to the medium (0.25 mcg/mL) as cofactor of pancreatic lipases (protein, UniProt P04118 23-112, looked up)
Colipase: GIIINLENGELCMNSAQCKSNCCQHSSALGLARCTSMASENSECSVKTLYGIYYKCPCERGLTCEGDKTIVGSITNTNFGICHDAGRSKQ

What was measured:
[1] = tested on: adipocytes; test: Isoproterenol induced lipolysis in adipocytes (glycerol release); format: cell-based; conditions: Iso 10 μM; inhibitor 50 μM
Protocol: (§1) Adipocytes were stimulated by isoproterenol (Iso 10 μM) or co-cultured with pancreatic acini. The adipose triglyceride lipase (ATGL) inhibitor atglistatin or the pancreatic lipase inhibitor orlistat (50 μM each) was added in some conditions.
Glycerol release was measured as a marker of lipolysis in adipocytes. Isoproterenol induced lipolysis in adipocytes.

[2] = tested on: Differentiated 3T3-LI adipocytes; test: LDH leakage from PTL-transfected 3T3-LI adipocytes with colipase; format: cell-based; conditions: over 8 hours
Protocol: (§2) Differentiated 3T3-LI adipocytes with lipid droplets were transfected with adenovirus expressing pancreatic triglyceride lipase (PTL) to induce lactate dehydrogenase (LDH) leakage or left as unstimulated controls. The medium was replaced with serum free medium alone or with colipase (0.25 mcg/mL). In some wells the lipase inhibitor orlistat (20 micromolar) was added every 2 hours.
LDH leakage into the medium was measured as a marker of cell injury. […] Colipase increased this to 30-40% LDH leakage compared to controls. […] Glycerol release was measure as a marker of lipolysis. […] Colipase increased glycerol release compared to controls. Glycerol release was prevented by the lipase inhibitor orlistat (FIG. 3B).

[3] = tested on: Differentiated 3T3-LI adipocytes; test: IL-6 release from PTL-transfected 3T3-LI adipocytes with colipase (luminex); format: cell-based; conditions: PTL + colipase 0.25 mcg/mL; orlistat 20 micromolar every 2 hours
Protocol: (§3) Differentiated 3T3-LI adipocytes with lipid droplets were transfected with adenovirus expressing pancreatic triglyceride lipase (PTL) or left as unstimulated controls. The medium was replaced with serum free medium alone or with colipase (0.25 mcg/mL). In some wells the lipase inhibitor orlistat (20 micromolar) was added every 2 hours. Cytokine release was measured as a marker of inflammatory response. IL-6 release into the medium was measured by luminex. There was a significant release of IL-6 only when both colipase and PTL were present. This release was prevented by orlistat (FIG. 6A).

[4] = tested on: rats with lethal pancreatitis; test: Caerulein plus glyceryl trioleate lethal pancreatitis in rats; format: in vivo, rat; conditions: orlistat 50 mg/kg
Protocol: Pancreatitis was induced in rats and flow cytometry was performed on white blood cells (WBCs) from peripheral blood.
Rats (100 gm rats) were either given caerulein (20 mcg/kg BID (twice a day) intraperitoneally) to induce pancreatitis or left untreated as control animals. Some rats were also given glyceryl trioleate (3 ml intraperitoneally) to induce lactate dehydrogenase (LDH) leakage. Some rats also received the lipase inhibitor orlistat (50 mg/kg). Blood was collected from rats 2 days after induction of caerulein pancreatitis with or without administration of caerulein, glyceryl trioleate, and/or orlistat.

[5] = tested on: pancreatic acini; test: Adipocyte induced necrosis in pancreatic acini (co-culture); format: cell-based; conditions: inhibitor 50 μM
Protocol: as §1
Co-culture of adipocytes and pancreatic acini induced necrosis in the acini.

[6] = tested on: Differentiated 3T3-LI adipocytes; test: MCP-1 release from PTL-transfected 3T3-LI adipocytes with colipase (luminex); format: cell-based; conditions: PTL + colipase 0.25 mcg/mL; orlistat 20 micromolar every 2 hours
Protocol: as §3, with “MCP-1” for “IL-6”, “6B).” for “6A).”

[7] = tested on: Differentiated 3T3-LI adipocytes; test: Glycerol release (lipolysis) from PTL-transfected 3T3-LI adipocytes with colipase; format: cell-based; conditions: PTL + colipase 0.25 mcg/mL; orlistat 20 micromolar every 2 hours; over 8 hours
Protocol: as §2, with “hours. LDH leakage into the medium was measured as a marker of cell injury. […] Colipase increased this to 30-40% LDH leakage compared to controls. […] Glycerol release was measure as a marker of lipolysis. […] Colipase increased glycerol release compared to controls. Glycerol release was prevented by the lipase inhibitor orlistat (FIG. 3B).” for “hours.”

[8] = tested on: Rat parotid acini; test: LDH leakage from rat parotid acini exposed to glyceryl trilinoelate, human PTL and human colipase; format: cell-based; conditions: glyceryl trilinoelate 300 micromolar + human PTL 1 micrograms/mL + human colipase 0.25 micrograms/mL; orlistat 50 micromolar or serum 1:4 dilution; over 4 hours
Protocol: Cells exposed to glyceryl trilinoelate, PTL, and colipase were treated at a 1:4 dilution with either orlistat (50 micromolar), serum from mice immunized against human colipase, or serum from unimmunized mice. […] (LDH) leakage into the medium was measured over 4 hours.

Molecule | Isoproterenol induced lipolysis (glycerol release) [1] | LDH leakage into the medium (marker of cell injury) ([2]; PTL + colipase 0.25 mcg/mL, orlistat 20 micromolar added every 2 hours) | IL-6 release into the medium [3] | Survival ([4]; caerulein + glyceryl trioleate (97% mortality by day 3 without treatment)) | Apoptosis of circulating cells (annexin V positive CD11b) ([4]; caerulein + glyceryl trioleate, blood 2 days after induction) | Adipocyte induced necrosis in pancreatic acini as measured by glycerol release [5] | Adipocyte induced necrosis in pancreatic acini as measured by propidium iodide uptake [5] | MCP-1 release into the medium [6] | Glycerol release (marker of lipolysis) [7] | LDH leakage into the medium [8] | LDH leakage compared to controls ([2]; PTL-transfected adipocytes, colipase 0.25 mcg/mL)
CN(C)C(=O)Nc1cccc(-c2ccc(N(C)C)cc2)c1 [atglistatin] | inhibited | – | – | – | – | – | – | – | – | – | –
CCCCCCCCCCC[C@@H](C[C@@H]1OC(=O)[C@H]1CCCCCC)OC(=O)[C@H](CC(C)C)NC=O [orlistat] | but not orlistat, inhibited | completely prevented | prevented | survive | prevented | inhibited | inhibited | prevented | prevented | significantly reduced | –
B1 | – | – | – | – | – | – | – | – | – | – | 30-40%
